Earlier results in paper PMC2818531 (Bioorganic & medicinal chemistry letters, 2009).

Molecular target: HIV gp41 six-helix bundle (6-HB) (Human immunodeficiency virus type 1 group M subtype B, UniProt P04578)
Conditions: read-out: EC50, inhibition of gp41 6-helical bundle formation

Chain of HIV gp41 six-helix bundle (6-HB) (P04578 546-581): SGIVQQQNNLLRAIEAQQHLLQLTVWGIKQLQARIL

Cc1ccc(C)n1-c1ccc(O)c(C(=O)O)c1 [Ligand A12]
EC50: 37.4 µM
